From patent US5208223A, “Phosphocholine derivative inhibitors of phospholipase A2” (American Cyanamid Company, priority 1992, dated 1993)
Counter-ions that a name gives are not always drawn.

Key:
Assay type in all cases: biochemical
porcine pancreatic PLA2 [1] = biological target: T1, porcine pancreatic PLA2 (Sus scrofa, UniProt P00592); assay: MHPLA2 assay: in vitro porcine pancreatic phospholipase A2, mixed micelle design, [s]=10 μm; conditions: for inhibition at 25 µg/mL / inhibition at 10 µg/mL: subs. con. 10, read-out: % Inh.; for inhibition at 10 µg/mL: dose 10 μ/ml; for inhibition at 20 µg/mL: dose 20 μ/ml
T1 construct: purchased Sigma
T1 sequence (P00592 23-146): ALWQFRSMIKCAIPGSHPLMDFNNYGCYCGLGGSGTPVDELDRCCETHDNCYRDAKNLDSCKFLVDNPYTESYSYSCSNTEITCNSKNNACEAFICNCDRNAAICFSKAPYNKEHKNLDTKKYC
Method: (§1) Phospholipase A2 activity was measured by a radiochemical assay in which labeled synthetic phosphatidylcholine substrate is converted by porcine pancreatic PLA2 to free radiolabeled arachidonate and lyso PC. Radiolabeled arachidonate is extracted from the reaction mixture and separated from unreacted substrate by column chromatography or TLC. Radioactivity (cpm) in samples is quantitated by liquid scintillation counting. Specific details are as follows:
(§2) Labeled substrate(1-stearyl-2-^3 H-arachidonylphosphatidylcholine; Amersham, sp. act. 84 (uCi/mmole, 0.025 to 0.2 uCi/assay tube and unlabeled substrates (Avanti), in sufficient quantity to give 20,000 cpm to 50,000 cpm and 10 μM to 1,000 μM final concentration/assay tube are dried under a stream of nitrogen. The PLA2 and mPLA2 assays utilized a […] substrate concentration. The mHPLA2 and HPLA2 assays (vida infra) utilized a 10 μM substrate concentration and the SmPLA2 assay utilized a substrate concentration ranging from 100 to 1000 μm. The substrate is then redissolved in 0.1M tris-HCl buffer, pH 9.0 containing 10 mM CaCl2 and 10 mM Na taurocholate detergent. The mixture is sonicated in a Kontes Sonifier to yield a homogeneous dispersion. The "mixed" micellar substrate is clear. An aliquot is reserved for a cpm count (total substrate). The total reaction volume is 500 μL; siliconized glassware or plasticware is used throughout. Enzyme (Sigma, sp. act.>690 U/mg protein and preferably 900 U/mg protein) is diluted 1:750 or 1:1000 in 0.1M tris-HCl buffer, pH 9.0 (without Ca^++ and detergent). Enzyme dilution depends on substrate concentration and required enzyme concentration.
(§3) The substrate in buffer is kept on ice until the reaction is started. The reaction is started by adding 10 μL of diluted enzyme solution to 490 μL of micellar substrate solution. Samples are incubated in a 37° C. water bath for 15 minutes with gentle mixing. The reaction is terminated by the addition of 100 μL of 1M fresh trichloroacetic acid (TCA) solution and chilling the tubes on ice for 30 minutes.
(§4) Samples (600 μL) are extracted with 3 ml CHCl3 /MeOH (2:1) for thin layer chromatography or in hexane/ether (9:1) for column chromatography. The phases are separated by gentle centrifugation at 700 rpm×5'. The organic phase is recovered.
(§5) Labeled arachidonate extracted with CHCl3 /MeOH is separated on silica gel G TLC plates (Analtech). Twenty μL of a 2 mg/ml internal standard solution of arachidonic acid (Sigma) is combined with 2-3 ml of the organic phase. The entire mixture is dried under nitrogen and redissolved in 50 μL of CHCl3 /MeOH (2:1). A 20 μL sample is counted in 10 ml of Beckman Redi-solv HP and spotted on silica gel G plates. The solvent system used to develop the plate is CHCl3 /MeOH/13.5N NH3 /H2 O (70:30:4:1). Plates are developed in a glass chamber for 1-11/2 hours, air dried, and the spots visualized in an iodine vapor chamber. Standards of phosphatidylcholine, lyso PC, and arachidonic acid (Sigma) are made as 2 mg/ml stocks in CHCl3 /MeOH (2:1) and spotted on plates. Spots corresponding to arachidonate and phospholipid are scraped and counted in 10 ml Beckman Redi-Solv HP scintillation fluid.
(§6) Samples are extracted with hexane/ether and the upper organic phase recovered. An aliquot is applied to a Silicar CC4 (Malincrodt) column. Columns are prepared using 1 ml of a 1:1 slurry of silicar CC4 in hexane/ether in a Pasteur pipet (approx. 2 cm height). Columns are rinsed with 500 μL of hexane/ether before adding the sample (300-600 μL) to the column. Columns are eluted with a total of 6 ml of hexane/ether. The 6 ml sample is counted in 10 ml of Beckman Redi-Solv HP scintillation fluid.
(§7) or the phospholipase A2 assay, compounds are prepared as 1 mg/ml stock solutions in MeOH and diluted appropriately in PBS. […]

porcine pancreatic PLA2 [2] = biological target: T1, porcine pancreatic PLA2; assay: PLA2 assay: in vitro porcine pancreatic phospholipase A2, preincubation of drug+enzyme, substrate 2 nM; conditions: preincubation, subs. con. 2; for inhibition at 10 µg/mL: dose 10 μ/ml; for inhibition at 20 µg/mL: dose 20 μ/ml; for IC50: read-out: IC50 (converted)
Method: as §1, §2, §3, §4, §5, §6
or the phospholipase A2 assay, compounds are prepared as 1 mg/ml stock solutions in MeOH and diluted appropriately in PBS.

porcine pancreatic PLA2 [3] = biological target: T1, porcine pancreatic PLA2; assay: MPLA2 assay: in vitro porcine pancreatic phospholipase A2, mixed micelle design, substrate 2 nM; conditions: for inhibition at 10 µg/mL: dose 10 μ/ml; for inhibition at 20 µg/mL: dose 20 μ/ml
Method: as §1, §2, §3, §4, §5, §6, §7

[4] = dose 25 μ/ml, subs. con. 2, read-out: % Inh.
[5] = dose 25 μ/ml, subs. con. 2, read-out: % Inh. Avg.

Structure (SMILES) | inhibition at 25 µg/mL (porcine pancreatic PLA2 [1]; dose 25 μ/ml) | inhibition at 10 µg/mL (porcine pancreatic PLA2 [2]; read-out: % Inh.) | inhibition at 20 µg/mL (porcine pancreatic PLA2 [2]; read-out: % Inh.) | inhibition at 25 µg/mL (porcine pancreatic PLA2 [3]; [4]) | % Inh. (porcine pancreatic PLA2 [3]; dose 25 μ/ml, subs. con. 2) | inhibition at 10 µg/mL (porcine pancreatic PLA2 [1]) | inhibition at 20 µg/mL (porcine pancreatic PLA2 [1]; subs. con. 10) | inhibition at 10 µg/mL (porcine pancreatic PLA2 [3]; subs. con. 2, read-out: % Inh.) | inhibition at 20 µg/mL (porcine pancreatic PLA2 [3]; subs. con. 2, read-out: % Inh.) | % Inh. (porcine pancreatic PLA2 [1]; dose 25 μ/ml, subs. con. 10) | inhibition at 10 µg/mL (porcine pancreatic PLA2 [2]; read-out: % Inh. Avg.) | IC50 (porcine pancreatic PLA2 [2]) | inhibition at 25 µg/mL (porcine pancreatic PLA2 [3]; [5]) | IC50 (porcine pancreatic PLA2 [3]; subs. con. 2)
CCCCCOCC(COP(=O)([O-])OCC[N+](C)(C)C)OP(=O)(OC)OCCCCC (single isomer, unassigned; more polar) [3,5,8,10-Tetraoxa-4,9 diphosphapentadecan-1-aminium, 4-hydroxy-9-methoxy-N,N,N-trimethyl-7-[(pentyloxy)methyl]-, hydroxide, inner salt, 4,9-dioxide, more polar isomer] | 0% | 5% | 11% |  | STIM |  |  |  |  |  |  |  |  | 
C=C(CC(COCCCCCCCCCCCCCCCC)COP(=O)([O-])OCC[N+](C)(C)C)C(F)(F)CCCCCCCCCCCCCCCC (stereo not drawn) [3,5,9-Trioxa-4-phosphapentacosan-1-aminium, 7-(3,3-difluoro-2-methylenenonadecyl)-4-hydroxy-N,N,N-trimethyl-, hydroxide, inner salt, 4-oxide] | 11% | 38% | 38% | 80% |  |  |  |  |  |  |  |  |  | 
CCCCCCCCCCCCCCCCOCC(COP(=O)([O-])OCC[N+](C)(C)C)CC(=O)C(F)(F)CCCCCCCCCCCCCCCC (stereo not drawn) [3,5,9-Trioxa-4-phosphapentacosan-1-aminium, 7-(3,3-difluoro-2-oxononadecyl)-4-hydroxy-N,N,N-trimethyl-, hydroxide, inner salt, 4-oxide] | 8% | 38% | 41% | 80% |  | 0% | 9% | 88% | 89% |  |  |  |  | 
CCCCCCCCCCCCCCCCSCCCOP(=O)([O-])OCC[N+](C)(C)C [3,5-Dioxa-9-thia-4-phosphapentacosan-1-aminium, 4-hydroxy-N,N,N-trimethyl-,hydroxide, inner salt, 4-oxide] |  | 54% | 64% | 74% |  |  |  | 46% | 83% | STIM | 4.5% | 12.9 µM | 80% | 16 µM
CCCCCCCCCCCCCCCCOCC(CC=NO)COP(=O)([O-])OCC[N+](C)(C)C (stereo not drawn) [4-Hydroxy-7-[2-(hydroxyimino)ethyl]-N,N,N-trimethyl-3,5,9-trioxa-4-phosphaoentacosan-1-aminium, hydroxide, inner salt, 4-oxide] | 28% | 56% | 81% | 51% |  | 0% | 8% | 19% | 57% |  | 53% | 10.1 µM | 55% | 

Continued, in another order:

inhibition at 25 µg/mL (porcine pancreatic PLA2 [1]; dose 25 μ/ml) | inhibition at 10 µg/mL (porcine pancreatic PLA2 [2]; read-out: % Inh.) | inhibition at 20 µg/mL (porcine pancreatic PLA2 [2]; read-out: % Inh.) | inhibition at 25 µg/mL (porcine pancreatic PLA2 [3]; [4]) | Structure (SMILES) | % Inh. (porcine pancreatic PLA2 [3]; dose 25 μ/ml, subs. con. 2) | inhibition at 10 µg/mL (porcine pancreatic PLA2 [1]) | inhibition at 20 µg/mL (porcine pancreatic PLA2 [1]; subs. con. 10) | inhibition at 10 µg/mL (porcine pancreatic PLA2 [3]; subs. con. 2, read-out: % Inh.) | inhibition at 20 µg/mL (porcine pancreatic PLA2 [3]; subs. con. 2, read-out: % Inh.) | % Inh. (porcine pancreatic PLA2 [1]; dose 25 μ/ml, subs. con. 10) | inhibition at 10 µg/mL (porcine pancreatic PLA2 [2]; read-out: % Inh. Avg.) | IC50 (porcine pancreatic PLA2 [2]) | inhibition at 25 µg/mL (porcine pancreatic PLA2 [3]; [5]) | IC50 (porcine pancreatic PLA2 [3]; subs. con. 2)
11% | 45% | 49% | 82% | CCCCCCCCCCCCCCCCOCC(COP(=O)([O-])OCC[N+](C)(C)C)CC(O)C(F)(F)CCCCCCCCCCCCCCCC (stereo not drawn) [3,5.9-Trioxa-4-phosphapentacosan-1-aminium, 7-(3,3-difluoro-2-hydroxynonadecyl)-4-hydroxy-N,N,N-trimethyl-, hydroxide, inner salt, 4-oxide] |  |  |  |  |  |  |  |  |  | 
16% | 59% | 82% | 68% | CCCCCCCCCCCCCCCC[S+]([O-])CCCOP(=O)([O-])OCC[N+](C)(C)C (stereo not drawn) [4-Hydroxy-N,N,N-trimethyl-3,5-dioxa-9-thia-4-phosphapentacosan-1-aminium, hydroxide, inner salt, 4.9-dioxide] |  |  |  |  |  |  | 61% | 12.5 µM | 71% | 
